According to PubChem BioAssay (NCI):
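Interpolation was linear, between the two tested concentrations surrounding the appropriate level; five concentrations were tested over 48 hours in 96-well plates. Abbreviation: GI50, concentration required for 50% inhibition of growth. The concentration for full growth arrest is given as TGI.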

Key:
Assay in all cases: inhibition of tumour cell growth, NCI panel, 48 h
CAKI-1 renal = tested on: CAKI-1 renal
HCT-116 colon = tested on: HCT-116 colon
HL-60(TB) leukemia = tested on: HL-60(TB) leukemia
UACC-62 melanoma = tested on: UACC-62 melanoma
DU-145 prostate = tested on: DU-145 prostate
RPMI-8226 leukemia = tested on: RPMI-8226 leukemia
NCI-H226 lung = tested on: NCI-H226 lung
786-0 renal = tested on: 786-0 renal
NCI-H23 lung = tested on: NCI-H23 lung
OVCAR-3 ovarian = tested on: OVCAR-3 ovarian
HOP-62 NSCLC = tested on: HOP-62 NSCLC
HT29 colon = tested on: HT29 colon
SK-OV-3 ovarian = tested on: SK-OV-3 ovarian
SNB-19 CNS = tested on: SNB-19 CNS
MDA-MB-231 breast = tested on: MDA-MB-231 breast
MOLT-4 leukemia = tested on: MOLT-4 leukemia
SW-620 colon = tested on: SW-620 colon
KM12 colon = tested on: KM12 colon
A549 NSCLC = tested on: A549 NSCLC
K-562 leukemia = tested on: K-562 leukemia
ACHN renal = tested on: ACHN renal
A498 renal = tested on: A498 renal
NCI-H460 lung = tested on: NCI-H460 lung
SF-539 CNS = tested on: SF-539 CNS
MDA-MB-435 = tested on: MDA-MB-435
SF-268 CNS = tested on: SF-268 CNS
BT-549 breast = tested on: BT-549 breast
T-47D breast = tested on: T-47D breast
UACC-257 melanoma = tested on: UACC-257 melanoma

## N#Cc1cnc(=O)n(C2CC(O)C(CO)O2)c1 (configuration not stated)
CAKI-1 renal
  GI50: > 100 µM
  TGI: > 100 µM
HCT-116 colon
  GI50: > 100 µM
  TGI: > 100 µM
HL-60(TB) leukemia
  GI50: > 100 µM
  TGI: > 100 µM
UACC-62 melanoma
  GI50: > 100 µM
  TGI: > 100 µM
DU-145 prostate
  GI50: > 100 µM
  TGI: > 100 µM
RPMI-8226 leukemia
  GI50: > 100 µM
  TGI: > 100 µM
NCI-H226 lung
  GI50: > 100 µM
  TGI: > 100 µM
786-0 renal
  GI50: > 100 µM
  TGI: > 100 µM
NCI-H23 lung
  GI50: > 100 µM
  TGI: > 100 µM
OVCAR-3 ovarian
  GI50: > 100 µM
  TGI: > 100 µM
HOP-62 NSCLC
  GI50: > 100 µM
  TGI: > 100 µM
HT29 colon
  GI50: > 100 µM
  TGI: > 100 µM
SK-OV-3 ovarian
  GI50: > 100 µM
  TGI: > 100 µM
SNB-19 CNS
  GI50: > 100 µM
  TGI: > 100 µM
MDA-MB-231 breast
  GI50: > 100 µM
  TGI: > 100 µM
MOLT-4 leukemia
  GI50: > 100 µM
  TGI: > 100 µM
SW-620 colon
  GI50: > 100 µM
  TGI: > 100 µM
KM12 colon
  GI50: > 100 µM
  TGI: > 100 µM
A549 NSCLC
  GI50: > 100 µM
  TGI: > 100 µM
K-562 leukemia
  GI50: 93.1 µM
  TGI: > 100 µM
ACHN renal
  GI50: > 100 µM
  TGI: > 100 µM
A498 renal
  GI50: 17.5 µM
  TGI: 82 µM
NCI-H460 lung
  GI50: > 100 µM
  TGI: > 100 µM
SF-539 CNS
  GI50: > 100 µM
  TGI: > 100 µM
MDA-MB-435
  GI50: > 100 µM
  TGI: > 100 µM
SF-268 CNS
  GI50: > 100 µM
  TGI: > 100 µM
BT-549 breast
  GI50: > 100 µM
  TGI: > 100 µM
T-47D breast
  GI50: > 100 µM
  TGI: > 100 µM
UACC-257 melanoma
  GI50: > 100 µM
